The numbers were not newly measured in patent US20160051533A1, “DIAGNOSIS AND PHARMACOLOGICAL TREATMENT OF SEASONAL AFFECTIVE DISORDER AND SYMPTOMS OF SEASONALITY” (Ladd Research LLC, priority 2014, published 2016), which cites them from elsewhere.

Data set [1] relates to mice. As to conditions: no photoperiod manipulation; cited from earlier work.
Data set [2] has as its system rat ventral tegmental area dopamine neurons. The conditions noted are these: 0.0001-10 micro molar orexin A; nearly half of the tested neurons; cited from earlier work.

Ends that are not written are not given here.

Consider `Cc1nc2ccc(NC(=O)Nc3ccnc4cccnc34)cc2o1` [SB-334867], for which the “immobility in Forced Swim Test and Tail Suspension Test” value in data set [1] was “decreased immobility”.

With “orexin A: neuropeptide of 33 amino acid residues with two disulfide bonds, derived from prepro-orexin (QPLPDCCRQKTCSCRLYELLHGAGNHAAGILTL; disulfide (positions not given here); ends not checked; also: two disulfide bonds, pairing not given here; UniProt O43612 34-66, looked up)”, the basal firing frequency in data set [2] is given as 175+/−17 % of control.
